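The compound was tested at five concentrations on cells cultured in 96-well plates, with a 48-hour exposure period. The concentration for full growth arrest is given as TGI.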
Key:
Experiment in all cases: growth of human tumour cells (NCI), 48 h
DLD-1 colon = system: DLD-1 colon
DMS 114 small cell lung = system: DMS 114 small cell lung
KM20L2 colon = system: KM20L2 colon
LOX IMVI melanoma = system: LOX IMVI melanoma
LXFL 529 NSCLC = system: LXFL 529 NSCLC
M19-MEL melanoma = system: M19-MEL melanoma
RXF-631 renal = system: RXF-631 renal
XF 498 CNS = system: XF 498 CNS

Measured: TGI

Cc1ccc(C(=O)C(C)N)cc1C (stereo not drawn)
> 100 µM: DLD-1 colon | DMS 114 small cell lung | KM20L2 colon | LOX IMVI melanoma | LXFL 529 NSCLC | M19-MEL melanoma | RXF-631 renal | XF 498 CNS
